Measured values reported in patent US20220356163A1, “SMALL MOLECULE INHIBITORS OF Id PROTEINS” (MEMORIAL SLOAN KETTERING CANCER CENTER, priority 2019, published 2022).
Like-named read-outs stand apart in the source and are kept apart here.

What was measured:
BT-474 = assay: MTT assay, BT-474; type: cell-based; parameters: scale not given here; settings: BT-474, HER-2 +ve cell line, 24 hours
Description: (§1) The 4T1 murine mammary tumor cell line and nine breast cancer cell lines representing the major breast cancer subtypes (ER+, HER2+, and TNBC) including MDA-MB-157, MDA-MB-436, MDA-MB-231, MDA-MB-453, MDA-MB-361, BT-474, SK-BR-3, MCF-7 and T47-D will be grown in RPMI or DMEM (Dulbecco's Modified Eagle Medium) media supplemented with 10% FBS (fetal bovine serum), 1% penicillin-streptomycin and 1% L-Glutamine. Patient derived xenograft cell lines BR7, BR11, and IBT will be established directly from breast cancer bone metastases specimens surgically resected from patients with informed consent. BR7 and BR11 specimens will be obtained from ER positive (HER2 negative and PR negative) metastatic breast cancer patients, while the IBT specimen will be obtained from a metastatic, triple negative breast cancer patient. Fresh tumor tissues will be quickly washed with ice cold PBS and minced into about 1-3 mm pieces in MEM medium (without FBS) using sterile razor blades. […] The cells will be treated with either 100 μM DMSO, AGX51, or a compound of the present technology such as AGX-A. The cell morphology and growth will be monitored daily for 1 week by microscopy for changes in morphology or cell death. […] Absorbance will then measured at 570 nm using a plate reader (Synergy 2, BioTek). […]

MDA-MB-157 = assay: MTT assay, MDA-MB-157; type: cell-based; settings: Homo sapiens, 24 h, MDA-MB-157, TNBC cell line, read-out: IC50 value after 24 hours of treatment
Description: as §1

ID1 mRNA = assay: qRT-PCR for ID1 in HCT116 cells; type: cell-based; settings: 40 μM, 24 hours
Procedure: qRT-PCR. RNA was extracted using the RNeasy kit (Qiagen, Valencia, Calif., USA) and cDNA was generated from 1 μg of RNA using SuperScript IV First-Strand Synthesis System (Invitrogen, Grand Island, N.Y., USA). Quantitative PCR was performed using SYBR Green QuantiTect Primer Assay (Qiagen) according to manufacturer's instructions in a 7900HT Fast-Real Time PCR System Instrument (Applied Biosystems, Grand Island, N.Y., USA). Primer pairs for the individual genes were obtained from the bioinformatically validated QuantiTect Library and are as follows: ID1 (QT00230650), ID3 (QT01673336), and GAPDH (QT01192646). The fold changes in gene expression were calculated using the delta-delta CT method.

ID1 = target: T1, ID1 (Homo sapiens, UniProt P41134); assay: Ubiquitylation assay in HCT116 and U87 cells; type: cell-based; settings: 60 μM AGX51 two hours, then MG132 six hours
T1 sequence (P41134 1-155): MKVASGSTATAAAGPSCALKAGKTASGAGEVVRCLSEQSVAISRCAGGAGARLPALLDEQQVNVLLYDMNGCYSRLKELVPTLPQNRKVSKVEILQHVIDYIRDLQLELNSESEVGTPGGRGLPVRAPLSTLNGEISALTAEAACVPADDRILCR
Procedure: Ubiquitylation assay. HCT116 cells were transfected with pcDNA3-ID1-Flag and pcDNA3-HA-Ubiquitin using lipofectamine 3000 (ThermoFisher). 36 hours after transfection, cells were treated with 60 μM AGX51 for two hours followed by 20 μM MG132 (EMD Millipore) for an additional six hours. After washing with ice-cold PBS twice, cells were lysed in 100 μL of TBS (50 mM Tris-HCl, pH 8.0, 150 mM NaCl) containing 2% SDS and boiled at 100° C. for 10 minutes. Lysates were diluted with 900 μL of TBS containing 1% NP40 and EDTA free protease inhibitor cocktail (Roche) and were cleared by centrifuge at 15,000 rpm for 15 minutes at 4° C. Immunoprecipitation was performed using 1 mg of cellular lysates with FLAG M2 affinity gel (Sigma, F2426). Ubiquitinylated proteins were analyzed by immunoblot using indicated antibodies.
Id proteins are degraded by the ubiquitin 26S proteasome system. Lasorella et al., Nat Rev Cancer, 14: 77-91 (2014). To determine if this degradation pathway mediated the effects of AGX51 on Id protein levels was then explored. HUVECs are difficult to transfect with expression constructs, so HCT116 cells were utilized for this assay. HCT116 cells were transfected with a construct expressing Flag-ID1 and then treated with 60 μM AGX51 for 2-24 hours (FIG. 3B). […]

Aqueous solubility = type: physicochemical
MDA-MB-453 = assay: MTT assay, MDA-MB-453; type: cell-based; parameters: scale not given here; settings: MDA-MB-453, HER-2 +ve cell line, 24 hours
Description: as §1

PDX-BR7 = assay: MTT assay, PDX-BR7; type: cell-based; settings: 24 h, PDX-BR7, PDX cell line, read-out: IC50 value after 24 hours of treatment
Description: as §1

4T1 = assay: MTT assay, 4T1; type: cell-based; settings: Mus musculus
Description: as §1

Structure (SMILES): CCC(=O)N(CCC(c1ccc2c(c1)OCO2)c1ccccc1OC)Cc1ccccc1 (racemic) [AGX51, N-(3-(benzo[d][1,3]dioxol-5-yl)-3-(2-methoxyphenyl)propyl)-N-benzylpropionamide]
- percentage at 60 μM (IC50 NA) (BT-474): NA (60 μM = 53%)
- IC50 (MDA-MB-157): 22.3 µM
- ID1 mRNA levels (ID1 mRNA): increase in ID1 mRNA levels
- ID1 polyubiquitylation (ID1): further increased ID1 polyubiquitylation
- water solubility (Aqueous solubility): water insoluble
- percentage at 60 μM (IC50 NA) (MDA-MB-453): NA (60 μM = 57%)
- IC50 (PDX-BR7): 10.9 µM
- IC50 (4T1; 24 h, 4T1, MTT, read-out: IC50 value after 24 hours of treatment): 26.7 µM
- IC50 (4T1; 4T1 cells, FIG. 7D, read-out: IC50): 26.7 µM
